Measurements published in the OligoGym collection.
Where “and” joins values, the source holds several entries; their conditions need not be identical. Equal values may be shown once. After the bases stand the sugars from the 5' end (letter, count) and the backbone: PS all phosphorothioate, else s phosphorothioate and o phosphodiester by linkage. Methylation of C is not given here. e = 2'-O-(2-methoxyethyl) (MOE); k = constrained ethyl (cEt); d = 2'-deoxy (DNA)

Biological target: APOL1
Details: ASO

Sequence	target mRNA inhibition (A431, 2 µM)	target mRNA inhibition (A431, 0.0625 µM)	target mRNA inhibition (A431, 0.25 µM)	target mRNA inhibition (A431, 1 µM)	target mRNA inhibition (A431, 0.0156 µM)
GTTCTAACTCTTGGGC (sugars kkddddkekekkdddd, PS)	52%				
GTTGTCCAGAGCTTTA (sugars k4 d9 k3, PS)		56%	72%	79%	
GTTTTGTAAGTGCAAC (sugars kdddddkekekddddd, PS)	92%				
GTTTTGTAAGTGCAAC (sugars kddddkekekeddddd, PS)	73%				
GTTTTGTAAGTGCAAC (sugars kkkddddkekekdddd, PS)	59%				
GTTTTTACAATAGTGC (sugars k4 d9 k3, PS)		74%	91%	96%	
TAAGTATTGCCAGCTA (sugars k3 d4 k3 e1 d5, PS)	65%				
TAATTCTATTAGAGGG (sugars k4 d9 k3, PS)		17%	45%	69%	
TAATTCTATTAGAGGG (sugars kkddddkekekddddd, PS)	34%				
TACCGGGTAAGAGCGA (sugars k4 d9 k3, PS)		32%	64%	78%	
TATATTTGATCCTCAA (sugars kkddddkekekkdddd, PS)	77%				
TATCAGATGGGTACTT (sugars k2 d4 e3 k2 d5, PS)	70%				
TATTGGTTCAAAAGCA (sugars k4 d9 k3, PS)		29%	67%	86%	
TATTTCTTGATGTGGT (sugars k2 d4 e3 k2 d5, PS)	99%	78%	94%	98%	37%
TATTTCTTGATGTGGT (sugars kkdddddkekeddddd, PS)	99%	59%	87%	96%	10%
TATTTCTTGATGTGGT (sugars kkddddkekekkdddd, PS)	71%				

Sequence	target mRNA inhibition (A431, 2 µM)	target mRNA inhibition (A431, 0.0625 µM)	target mRNA inhibition (A431, 0.25 µM)	target mRNA inhibition (A431, 1 µM)	target mRNA inhibition (A431, 0.0156 µM)
TCAATTTGTCAAGGCT (sugars k4 d9 k3, PS)		46% and 59%	78% and 83%	90% and 91%	
TCAGATGGGTACTTCT (sugars k3 d4 k3 e1 d5, PS)	82%				
TCAGATGGGTACTTCT (sugars kkdddddkekeddddd, PS)	89%				
TCAGGTGACTACATTT (sugars k4 d9 k3, PS)		47%	67%	84%	
TCATTTGCTAGGTGCC (sugars k4 d9 k3, PS)		43%	72%	85%	
TCTATTAGAGGGCTAG (sugars k2 d4 e4 k2 d4, PS)	44%				
TCTATTAGAGGGCTAG (sugars kkkddddkekekdddd, PS)	23%				
TCTCATGGTACAGGAG (sugars kddddkekekeddddd, PS)	55%				
TGAAACATTCCTGGAC (sugars k4 d9 k3, PS)		28% and 8%	55% and 32%	80% and 65%	
TGAAGATTGGCTCTGG (sugars k2 d4 e3 k2 d5, PS)	82%				
TGAAGATTGGCTCTGG (sugars kkkddddkekeddddd, PS)	54%				
TGAGTATTGTTTTTGT (sugars k2 d4 e3 k2 d5, PS)	87%				
TGGATGGAAGGAACCT (sugars k4 d9 k3, PS)		3%	44%	36%	
TGGGAATTATGGAATT (sugars kkkddddkekekdddd, PS)	56%				
TGTAAGTGCAACCAAT (sugars k4 d9 k3, PS)		19%	46%	78%	
TGTATTTCTTGATGTG (sugars k3 d4 k3 e1 d5, PS)	87%				
